Laboratory results taken from ChEMBL document CHEMBL3758087, “7TM X-ray structures for class C GPCRs as new drug-discovery tools. 1. mGluR5” (Bioorg Med Chem Lett, 2016).

What was measured:
[1] = target: T1, Metabotropic glutamate receptor 5 (Rattus norvegicus, UniProt P31424); test: Antagonist activity at rat mGluR5 expressed in HEK293 cells assessed as inhibition of glutamate-induced calcium mobilization by Fluo-4 dye-based fluorescence assay; format: functional, cell-based
[2] = target: T1, Metabotropic glutamate receptor 5; test: Displacement of [3H]methoxy-PEPgamma from mGluR5 in rat cerebral cortex membranes after 60 mins by scintillation counting analysis; format: cell membranes, Membrane
[3] = target: T2, Metabotropic glutamate receptor 5 (Homo sapiens, UniProt P41594); test: Antagonist activity at human mGluR5d by fluo-3-based FLIPR assay
T2 sequence (P41594 whole entry): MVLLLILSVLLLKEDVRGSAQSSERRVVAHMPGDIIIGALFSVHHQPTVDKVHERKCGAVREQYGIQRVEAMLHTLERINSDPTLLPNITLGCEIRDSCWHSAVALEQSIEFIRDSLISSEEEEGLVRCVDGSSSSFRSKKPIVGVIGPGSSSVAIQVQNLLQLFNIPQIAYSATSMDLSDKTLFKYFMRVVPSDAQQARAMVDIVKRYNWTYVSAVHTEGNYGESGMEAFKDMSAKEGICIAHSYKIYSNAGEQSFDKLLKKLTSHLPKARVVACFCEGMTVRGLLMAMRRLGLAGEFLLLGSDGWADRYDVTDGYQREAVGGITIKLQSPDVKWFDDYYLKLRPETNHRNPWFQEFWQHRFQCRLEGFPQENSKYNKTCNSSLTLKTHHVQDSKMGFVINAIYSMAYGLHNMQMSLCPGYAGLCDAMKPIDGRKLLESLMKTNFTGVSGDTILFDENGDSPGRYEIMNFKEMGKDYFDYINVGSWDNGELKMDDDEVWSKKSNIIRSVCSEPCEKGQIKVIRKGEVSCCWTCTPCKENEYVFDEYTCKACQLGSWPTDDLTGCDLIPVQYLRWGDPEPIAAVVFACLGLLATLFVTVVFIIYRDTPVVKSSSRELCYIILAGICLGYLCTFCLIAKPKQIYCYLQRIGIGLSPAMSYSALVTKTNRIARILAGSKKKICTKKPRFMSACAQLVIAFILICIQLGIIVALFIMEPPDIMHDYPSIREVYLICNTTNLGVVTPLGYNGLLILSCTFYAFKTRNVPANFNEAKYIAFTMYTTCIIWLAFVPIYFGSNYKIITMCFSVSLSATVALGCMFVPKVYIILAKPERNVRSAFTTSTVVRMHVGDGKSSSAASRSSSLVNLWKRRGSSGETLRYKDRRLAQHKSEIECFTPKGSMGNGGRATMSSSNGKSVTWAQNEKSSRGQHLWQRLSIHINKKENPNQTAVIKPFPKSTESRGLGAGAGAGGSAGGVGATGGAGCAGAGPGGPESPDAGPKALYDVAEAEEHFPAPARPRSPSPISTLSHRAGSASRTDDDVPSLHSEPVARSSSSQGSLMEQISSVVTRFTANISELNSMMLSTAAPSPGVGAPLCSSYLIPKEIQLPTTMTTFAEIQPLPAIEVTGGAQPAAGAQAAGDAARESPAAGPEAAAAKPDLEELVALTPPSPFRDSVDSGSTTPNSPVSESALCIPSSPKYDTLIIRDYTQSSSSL

[4] = target: T2, Metabotropic glutamate receptor 5; test: Antagonist activity at human mGluR5 expressed in CHO cells assessed as inhibition of glutamate-induced effect by aequorin bioluminescence assay; format: cell-based
[5] = target: T2, Metabotropic glutamate receptor 5; test: Antagonist activity at mGluR5 (unknown origin)

T1 sequence (P31424 whole entry): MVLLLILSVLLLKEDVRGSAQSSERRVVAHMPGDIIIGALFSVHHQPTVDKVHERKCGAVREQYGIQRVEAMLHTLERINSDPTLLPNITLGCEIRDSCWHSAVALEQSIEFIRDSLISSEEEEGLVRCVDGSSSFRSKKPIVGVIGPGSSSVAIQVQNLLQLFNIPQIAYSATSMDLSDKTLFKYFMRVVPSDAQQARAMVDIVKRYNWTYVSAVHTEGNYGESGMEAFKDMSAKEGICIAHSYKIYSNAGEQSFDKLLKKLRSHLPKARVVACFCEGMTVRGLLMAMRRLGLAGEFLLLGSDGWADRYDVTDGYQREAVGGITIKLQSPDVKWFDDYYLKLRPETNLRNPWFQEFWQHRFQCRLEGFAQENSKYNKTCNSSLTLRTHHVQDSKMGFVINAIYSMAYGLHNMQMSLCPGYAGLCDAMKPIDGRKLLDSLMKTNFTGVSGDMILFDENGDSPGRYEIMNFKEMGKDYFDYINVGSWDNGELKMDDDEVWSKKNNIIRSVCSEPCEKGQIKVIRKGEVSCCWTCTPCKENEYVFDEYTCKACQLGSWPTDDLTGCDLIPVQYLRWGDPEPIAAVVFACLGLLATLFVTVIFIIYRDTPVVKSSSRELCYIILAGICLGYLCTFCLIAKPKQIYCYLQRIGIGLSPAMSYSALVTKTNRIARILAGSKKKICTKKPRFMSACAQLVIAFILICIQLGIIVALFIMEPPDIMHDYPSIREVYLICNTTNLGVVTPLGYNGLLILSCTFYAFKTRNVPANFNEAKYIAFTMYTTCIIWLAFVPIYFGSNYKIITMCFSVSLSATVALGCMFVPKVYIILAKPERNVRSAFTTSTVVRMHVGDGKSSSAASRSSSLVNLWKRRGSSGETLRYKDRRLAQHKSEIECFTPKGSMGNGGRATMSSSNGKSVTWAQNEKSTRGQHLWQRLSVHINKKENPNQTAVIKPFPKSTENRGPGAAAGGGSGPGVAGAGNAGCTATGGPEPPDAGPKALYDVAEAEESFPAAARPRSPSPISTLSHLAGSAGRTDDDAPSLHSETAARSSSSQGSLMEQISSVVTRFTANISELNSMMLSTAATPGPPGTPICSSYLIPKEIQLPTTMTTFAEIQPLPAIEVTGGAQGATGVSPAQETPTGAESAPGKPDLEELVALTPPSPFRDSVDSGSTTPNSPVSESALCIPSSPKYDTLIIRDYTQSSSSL

N#Cc1cnc(Nc2nc3ccccc3o2)nc1-c1ccc(F)cc1
IC50 [1]: 91 nM

Cc1cccc(C(=O)NC23CC4CC(C2)CC(NC(=O)c2cccc(C)n2)(C4)C3)n1
Ki [2]: 6.7 nM

N#Cc1cccc(C#C[C@H]2CCC[C@H]3CN(c4ncccc4C#N)CCN32)c1 (racemic)
IC50 [3]: 20 nM

O=C(Nc1ccnc(Cl)c1)c1nnn2c1CSc1c-2ccc(F)c1Cl
IC50 [4]: 0.79 nM

N#Cc1nccnc1N1CCN2[C@@H](CC[C@@H]2c2nnn(-c3cccc(Cl)c3)n2)C1 (racemic)
IC50 [5]: 10 nM
